# According to publication PMC12371865 (2025):
# Assays:
# [1] = system: polyG (polyguanylic acid) (RNA, polymer) G; experiment: luminescence quenching and UV-vis hypochromism titration; settings: qualitative; enantiomer not stated
# [2] = system: d(G5C5)2 (DNA, duplex) GGGGGCCCCC; experiment: luminescence titration at 630 nm, Bard fit; settings: K+ (50 mM potassium phosphate), pH 7, per base
# [3] = system: hTel (hybrid-1 quadruplex, K+ stabilized) (DNA, G4) TTGGGTTAGGGTTAGGGTTAGGGA; experiment: luminescence titration at 630 nm, Bard fit; settings: K+ (50 mM potassium phosphate), pH 7, per base
compound,measurement,setting,value
N#Cc1cccc2nc3c4cccnc4c4ncccc4c3nc12.[Ru+2].c1cnc2c(ccc3nccnc32)n1.c1cnc2c(ccc3nccnc32)n1,binding,[1],yes
same,K b,[2]; binding-site size 2.1(±0.1),7.8(±0.8) × 10^5 M^-1
same,K b,[2]; binding-site size 2.2(±0.1),1.3(±0.2) × 10^6 M^-1
same,K b,[3]; binding-site size 1.4(±0.1),5.7(±0.2) × 10^5 M^-1
same,K b,[3]; binding-site size 2.7(±0.1),2.7(±0.2) × 10^5 M^-1
